Tests used:
Assay in all cases: KINOMEscan competition binding
Conditions in all cases: compound 10.0 µM
ADCK4 (human) = ADCK4 (human) (UniProt Q96D53)
CAMK2D (human) = CAMK2D (human) (UniProt Q13557)
CDKL1 (human) = CDKL1 (human) (UniProt Q00532)
CHEK2 (human) = CHEK2 (human) (UniProt O96017)
CIT (human) = CIT (human) (UniProt O14578)
CRK2 (P.falciparum) = CRK2 (P.falciparum) (UniProt P61075)
CSNK1G2 (human) = CSNK1G2 (human) (UniProt P78368)
CSNK1G3 (human) = CSNK1G3 (human) (UniProt Q9Y6M4)
DCLK1 (human) = DCLK1 (human) (UniProt O15075)
DYRK1A (human) = DYRK1A (human) (UniProt Q13627)
EPHA1 (human) = EPHA1 (human) (UniProt P21709)
EPHB3 (human) = EPHB3 (human) (UniProt P54753)
HIPK3 (human) = HIPK3 (human) (UniProt Q9H422)
IKBKB (human) = IKBKB (human) (UniProt O14920)
[1] = target: JAK3 JH1 catalytic (human) (UniProt P52333)
KDR (human) = KDR (human) (UniProt P35968)
LIMK1 (human) = LIMK1 (human) (UniProt P53667)
MAP3K1 (human) = MAP3K1 (human) (UniProt Q13233)
MAP3K6 (human) = MAP3K6 (human) (UniProt O95382)
MAP4K1 (human) = MAP4K1 (human) (UniProt Q92918)
MAPK8 (human) = MAPK8 (human) (UniProt P45983)
MARK3 (human) = MARK3 (human) (UniProt P27448)
NTRK1 (human) = NTRK1 (human) (UniProt P04629)
NTRK2 (human) = NTRK2 (human) (UniProt Q16620)
NTRK3 (human) = NTRK3 (human) (UniProt Q16288)
PAK7 (human) = PAK7 (human) (UniProt Q9P286)
PLK1 (human) = PLK1 (human) (UniProt P53350)
PLK4 (human) = PLK4 (human) (UniProt O00444)
PRKCD (human) = PRKCD (human) (UniProt Q05655)
PRKCH (human) = PRKCH (human) (UniProt P24723)
PRKD1 (human) = PRKD1 (human) (UniProt Q15139)
PRKX (human) = PRKX (human) (UniProt P51817)
RIPK1 (human) = RIPK1 (human) (UniProt Q13546)
RPS6KA6 KD2 (human) = RPS6KA6 KD2 (human) (UniProt Q9UK32)
SLK (human) = SLK (human) (UniProt Q9H2G2)
STK4 (human) = STK4 (human) (UniProt Q13043)
SYK (human) = SYK (human) (UniProt P43405)
TLK2 (human) = TLK2 (human) (UniProt Q86UE8)
TNNI3K (human) = TNNI3K (human) (UniProt Q59H18)
YES1 (human) = YES1 (human) (UniProt P07947)

IKBKB (human), sequence (O14920 whole entry, looked up): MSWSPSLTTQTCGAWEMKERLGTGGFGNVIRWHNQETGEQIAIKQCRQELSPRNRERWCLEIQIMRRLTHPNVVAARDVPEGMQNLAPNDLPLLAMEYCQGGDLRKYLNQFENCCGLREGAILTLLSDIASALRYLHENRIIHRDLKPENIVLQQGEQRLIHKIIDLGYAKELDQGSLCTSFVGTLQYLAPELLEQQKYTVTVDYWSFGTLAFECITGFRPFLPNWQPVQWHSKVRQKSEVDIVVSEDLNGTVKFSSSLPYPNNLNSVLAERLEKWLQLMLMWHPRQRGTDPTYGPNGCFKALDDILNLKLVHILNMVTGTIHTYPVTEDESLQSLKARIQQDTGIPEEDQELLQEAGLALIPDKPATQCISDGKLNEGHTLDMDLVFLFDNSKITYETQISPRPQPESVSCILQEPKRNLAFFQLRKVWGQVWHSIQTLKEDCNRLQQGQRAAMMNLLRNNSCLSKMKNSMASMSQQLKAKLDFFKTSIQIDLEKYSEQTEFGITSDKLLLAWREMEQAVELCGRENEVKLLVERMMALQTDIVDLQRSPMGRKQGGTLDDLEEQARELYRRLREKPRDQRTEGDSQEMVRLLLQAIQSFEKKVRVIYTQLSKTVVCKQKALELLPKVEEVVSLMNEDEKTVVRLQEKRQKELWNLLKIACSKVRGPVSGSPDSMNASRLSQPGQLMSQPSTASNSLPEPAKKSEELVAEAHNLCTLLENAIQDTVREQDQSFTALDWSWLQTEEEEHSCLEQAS
RPS6KA6 KD2 (human), sequence (Q9UK32 whole entry, looked up): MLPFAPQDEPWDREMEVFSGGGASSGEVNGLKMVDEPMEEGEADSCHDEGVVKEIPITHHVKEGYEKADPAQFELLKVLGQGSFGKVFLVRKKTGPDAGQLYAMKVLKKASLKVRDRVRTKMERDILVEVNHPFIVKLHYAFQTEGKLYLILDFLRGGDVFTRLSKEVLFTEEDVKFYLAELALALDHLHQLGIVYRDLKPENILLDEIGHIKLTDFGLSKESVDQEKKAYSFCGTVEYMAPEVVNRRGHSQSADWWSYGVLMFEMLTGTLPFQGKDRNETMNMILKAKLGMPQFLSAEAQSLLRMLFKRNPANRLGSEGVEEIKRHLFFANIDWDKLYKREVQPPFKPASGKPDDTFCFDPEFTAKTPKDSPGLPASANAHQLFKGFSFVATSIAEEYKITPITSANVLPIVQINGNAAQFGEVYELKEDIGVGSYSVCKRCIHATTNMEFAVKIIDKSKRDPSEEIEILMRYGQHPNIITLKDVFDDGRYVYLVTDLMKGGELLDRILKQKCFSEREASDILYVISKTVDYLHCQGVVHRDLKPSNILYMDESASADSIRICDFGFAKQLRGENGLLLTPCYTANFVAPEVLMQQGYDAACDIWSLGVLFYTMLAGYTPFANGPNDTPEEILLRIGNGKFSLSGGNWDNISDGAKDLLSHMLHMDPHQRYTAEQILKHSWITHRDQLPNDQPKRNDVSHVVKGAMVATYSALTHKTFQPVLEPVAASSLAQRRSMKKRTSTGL
KDR (human), sequence (P35968 whole entry, looked up): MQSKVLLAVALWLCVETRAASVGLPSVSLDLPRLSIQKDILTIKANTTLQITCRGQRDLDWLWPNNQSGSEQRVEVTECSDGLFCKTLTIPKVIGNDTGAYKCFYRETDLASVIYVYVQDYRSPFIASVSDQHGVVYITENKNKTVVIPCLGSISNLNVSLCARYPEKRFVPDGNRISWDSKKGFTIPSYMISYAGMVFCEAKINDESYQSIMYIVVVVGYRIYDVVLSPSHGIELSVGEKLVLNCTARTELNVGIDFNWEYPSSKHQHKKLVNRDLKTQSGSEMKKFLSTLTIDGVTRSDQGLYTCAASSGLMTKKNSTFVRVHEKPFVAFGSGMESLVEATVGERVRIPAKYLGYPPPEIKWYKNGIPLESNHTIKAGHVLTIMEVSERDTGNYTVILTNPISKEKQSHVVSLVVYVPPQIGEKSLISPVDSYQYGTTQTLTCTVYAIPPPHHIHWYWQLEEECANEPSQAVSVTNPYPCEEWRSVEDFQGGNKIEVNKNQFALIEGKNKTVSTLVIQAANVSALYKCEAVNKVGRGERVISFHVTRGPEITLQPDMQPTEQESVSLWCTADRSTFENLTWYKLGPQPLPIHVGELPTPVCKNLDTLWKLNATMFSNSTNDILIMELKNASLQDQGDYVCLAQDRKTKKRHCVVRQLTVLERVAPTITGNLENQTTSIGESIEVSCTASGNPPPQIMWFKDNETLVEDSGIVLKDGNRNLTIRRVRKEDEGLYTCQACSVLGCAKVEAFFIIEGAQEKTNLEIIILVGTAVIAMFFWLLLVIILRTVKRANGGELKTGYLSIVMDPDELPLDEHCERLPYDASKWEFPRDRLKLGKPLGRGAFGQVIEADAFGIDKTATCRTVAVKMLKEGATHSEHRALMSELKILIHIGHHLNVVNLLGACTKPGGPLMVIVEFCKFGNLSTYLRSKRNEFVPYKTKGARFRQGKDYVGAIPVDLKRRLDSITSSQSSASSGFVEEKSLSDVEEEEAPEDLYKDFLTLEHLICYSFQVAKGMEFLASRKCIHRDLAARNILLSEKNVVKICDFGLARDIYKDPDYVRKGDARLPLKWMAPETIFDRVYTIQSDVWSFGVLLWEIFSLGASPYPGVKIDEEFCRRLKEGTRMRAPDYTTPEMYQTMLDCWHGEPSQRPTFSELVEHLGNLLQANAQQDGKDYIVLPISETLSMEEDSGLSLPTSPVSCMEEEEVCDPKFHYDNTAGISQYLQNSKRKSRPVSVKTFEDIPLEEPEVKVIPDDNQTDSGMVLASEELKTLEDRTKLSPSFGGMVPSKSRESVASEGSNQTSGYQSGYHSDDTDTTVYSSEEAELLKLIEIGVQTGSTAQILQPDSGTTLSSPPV
CHEK2 (human), sequence (O96017 whole entry, looked up): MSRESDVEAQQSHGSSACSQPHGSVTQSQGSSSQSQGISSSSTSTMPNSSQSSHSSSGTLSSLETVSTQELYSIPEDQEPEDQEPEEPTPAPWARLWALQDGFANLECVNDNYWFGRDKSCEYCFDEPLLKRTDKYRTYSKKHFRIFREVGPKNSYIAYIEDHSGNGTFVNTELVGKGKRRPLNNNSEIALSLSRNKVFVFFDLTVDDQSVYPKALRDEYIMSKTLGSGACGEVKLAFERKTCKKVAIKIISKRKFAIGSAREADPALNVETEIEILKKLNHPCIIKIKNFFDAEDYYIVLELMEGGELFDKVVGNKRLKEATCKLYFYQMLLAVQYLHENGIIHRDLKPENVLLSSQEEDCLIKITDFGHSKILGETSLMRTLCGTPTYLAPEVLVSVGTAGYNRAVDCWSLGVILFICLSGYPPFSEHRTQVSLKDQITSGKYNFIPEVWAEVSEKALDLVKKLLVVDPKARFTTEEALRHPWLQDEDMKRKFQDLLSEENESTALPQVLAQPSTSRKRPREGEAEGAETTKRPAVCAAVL
EPHA1 (human), sequence (P21709 whole entry, looked up): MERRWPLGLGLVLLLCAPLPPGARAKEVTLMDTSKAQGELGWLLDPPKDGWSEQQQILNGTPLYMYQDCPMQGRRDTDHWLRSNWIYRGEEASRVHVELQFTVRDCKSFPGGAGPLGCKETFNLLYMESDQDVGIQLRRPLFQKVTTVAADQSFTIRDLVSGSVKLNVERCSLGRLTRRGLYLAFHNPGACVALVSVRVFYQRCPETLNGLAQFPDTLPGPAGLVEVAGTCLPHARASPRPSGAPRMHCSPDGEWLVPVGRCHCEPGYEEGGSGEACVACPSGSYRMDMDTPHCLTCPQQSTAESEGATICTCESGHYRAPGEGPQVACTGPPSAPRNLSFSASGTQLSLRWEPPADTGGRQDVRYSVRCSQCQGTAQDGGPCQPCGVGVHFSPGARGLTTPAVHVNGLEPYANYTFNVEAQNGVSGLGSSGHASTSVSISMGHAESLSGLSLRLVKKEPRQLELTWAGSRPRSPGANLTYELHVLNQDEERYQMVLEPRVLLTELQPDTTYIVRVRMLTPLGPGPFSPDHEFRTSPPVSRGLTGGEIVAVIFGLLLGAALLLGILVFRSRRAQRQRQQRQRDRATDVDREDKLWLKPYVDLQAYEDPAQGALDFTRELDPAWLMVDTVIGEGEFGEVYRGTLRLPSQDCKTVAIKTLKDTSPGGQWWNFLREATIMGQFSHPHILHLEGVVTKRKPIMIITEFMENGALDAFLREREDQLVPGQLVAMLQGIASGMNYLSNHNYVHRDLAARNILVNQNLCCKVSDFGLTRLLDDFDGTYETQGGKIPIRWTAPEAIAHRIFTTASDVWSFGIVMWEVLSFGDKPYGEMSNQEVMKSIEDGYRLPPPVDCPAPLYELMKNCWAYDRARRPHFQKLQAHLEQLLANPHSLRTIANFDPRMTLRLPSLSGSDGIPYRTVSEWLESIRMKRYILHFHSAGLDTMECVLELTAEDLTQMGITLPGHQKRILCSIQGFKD
CAMK2D (human), sequence (Q13557 whole entry, looked up): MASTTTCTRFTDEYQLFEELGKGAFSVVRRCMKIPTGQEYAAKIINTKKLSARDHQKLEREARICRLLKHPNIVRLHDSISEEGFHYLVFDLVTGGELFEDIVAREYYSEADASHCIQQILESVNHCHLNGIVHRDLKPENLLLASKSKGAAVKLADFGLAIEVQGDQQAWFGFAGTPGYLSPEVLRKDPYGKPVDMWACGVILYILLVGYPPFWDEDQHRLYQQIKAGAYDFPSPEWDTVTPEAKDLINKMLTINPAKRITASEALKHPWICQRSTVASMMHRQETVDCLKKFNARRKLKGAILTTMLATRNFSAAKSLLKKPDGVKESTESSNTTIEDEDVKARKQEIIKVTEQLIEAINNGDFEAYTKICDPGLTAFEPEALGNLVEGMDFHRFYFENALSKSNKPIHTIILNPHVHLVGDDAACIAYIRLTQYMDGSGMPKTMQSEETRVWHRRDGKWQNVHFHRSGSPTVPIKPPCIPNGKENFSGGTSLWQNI

Question: Which kinase still bound, per cent of control (ADCK4 (human)) does the source give for `CCN1CCN(Cc2ccc(NC(=O)c3ccc(C)c(/C=C/c4cnc5[nH]ccc5c4OC)c3)cc2C(F)(F)F)CC1` here?
Answer: 100%

Question: And the kinase still bound, per cent of control (CAMK2D (human))?
Answer: 100%

Question: What about the kinase still bound, per cent of control (CDKL1 (human)) of the same compound?
Answer: 61%

Question: What about the kinase still bound, per cent of control (CHEK2 (human)) of the same compound?
Answer: 66%

Question: What about the kinase still bound, per cent of control (CIT (human)) of the same compound?
Answer: 0%

Question: What about the kinase still bound, per cent of control (CRK2 (P.falciparum)) of the same compound?
Answer: 93%

Question: And the kinase still bound, per cent of control (CSNK1G2 (human))?
Answer: 39%

Question: What about the kinase still bound, per cent of control (CSNK1G3 (human)) of the same compound?
Answer: 48%

Question: And the kinase still bound, per cent of control (DCLK1 (human))?
Answer: 93%

Question: What about the kinase still bound, per cent of control (DYRK1A (human)) of the same compound?
Answer: 63%

Question: What about the kinase still bound, per cent of control (EPHA1 (human)) of the same compound?
Answer: 2%

Question: What about the kinase still bound, per cent of control (EPHB3 (human)) of the same compound?
Answer: 4.7%

Question: And the kinase still bound, per cent of control (HIPK3 (human))?
Answer: 44%

Question: And the kinase still bound, per cent of control (IKBKB (human))?
Answer: 0.15%

Question: What about the kinase still bound, per cent of control [1] of the same compound?
Answer: 1.1%

Question: What about the kinase still bound, per cent of control (KDR (human)) of the same compound?
Answer: 2.6%

Question: What about the kinase still bound, per cent of control (LIMK1 (human)) of the same compound?
Answer: 7.7%

Question: And the kinase still bound, per cent of control (MAP3K1 (human))?
Answer: 71%

Question: What about the kinase still bound, per cent of control (MAP3K6 (human)) of the same compound?
Answer: 64%

Question: And the kinase still bound, per cent of control (MAP4K1 (human))?
Answer: 0%

Question: And the kinase still bound, per cent of control (MAPK8 (human))?
Answer: 19%

Question: What about the kinase still bound, per cent of control (MARK3 (human)) of the same compound?
Answer: 38%

Question: And the kinase still bound, per cent of control (NTRK1 (human))?
Answer: 2.5%

Question: And the kinase still bound, per cent of control (NTRK2 (human))?
Answer: 5.2%

Question: And the kinase still bound, per cent of control (NTRK3 (human))?
Answer: 0.95%

Question: And the kinase still bound, per cent of control (PAK7 (human))?
Answer: 100%

Question: And the kinase still bound, per cent of control (PLK1 (human))?
Answer: 100%

Question: What about the kinase still bound, per cent of control (PLK4 (human)) of the same compound?
Answer: 59%

Question: What about the kinase still bound, per cent of control (PRKCD (human)) of the same compound?
Answer: 49%

Question: And the kinase still bound, per cent of control (PRKCH (human))?
Answer: 100%

Question: And the kinase still bound, per cent of control (PRKD1 (human))?
Answer: 3.5%

Question: And the kinase still bound, per cent of control (PRKX (human))?
Answer: 75%

Question: And the kinase still bound, per cent of control (RIPK1 (human))?
Answer: 0.15%

Question: And the kinase still bound, per cent of control (RPS6KA6 KD2 (human))?
Answer: 15%

Question: And the kinase still bound, per cent of control (SLK (human))?
Answer: 0.6%

Question: And the kinase still bound, per cent of control (STK4 (human))?
Answer: 21%

Question: And the kinase still bound, per cent of control (SYK (human))?
Answer: 7.2%

Question: And the kinase still bound, per cent of control (TLK2 (human))?
Answer: 93%

Question: What about the kinase still bound, per cent of control (TNNI3K (human)) of the same compound?
Answer: 1%

Question: And the kinase still bound, per cent of control (YES1 (human))?
Answer: 0.65%
